Measurements reported in US10499642B2, “Isoxazoline-substituted benzamides and analogues as insecticides” (SYNGENTA PARTICIPATIONS AG, priority 2015, dated 2019).

How the values were obtained:
Type in all cases: in vivo
Tetranychus urticae = Tetranychus urticae (two-spotted spider mite) bean leaf disc test; settings: foliar, 192 h
Description: Tetranychus urticae (Two-Spotted Spider Mite):
Bean leaf discs on agar in 24-well microtiter plates were sprayed with aqueous test solutions prepared from 10′000 ppm DMSO stock solutions. After drying the leaf discs were infested with a mite population of mixed ages. The samples were assessed for mortality on mixed population (mobile stages) 8 days after infestation.

Thrips tabaci = Thrips tabaci (onion thrips) sunflower leaf disc test; settings: foliar, 144 h
Description: Thrips tabaci (Onion Thrips):
Sunflower leaf discs were placed on agar in 24-well microtiter plates and sprayed with aqueous test solutions prepared from 10′000 ppm DMSO stock solutions. After drying the leaf discs were infested with a thrips population of mixed ages. The samples were assessed for mortality 6 days after infestation.

Plutella xylostella = Plutella xylostella (diamond back moth) artificial diet test; settings: 120 h, read-out: effect in at least one of the two categories (mortality or growth inhibition)
Summary of the method: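 At a 200 ppm rate, test solutions were applied to artificial diet and allowed to dry before second-instar larvae were added. Five days later, larval mortality and growth inhibition were rated against untreated samples.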

Diabrotica Balteata = assay: Diabrotica balteata (corn root worm) maize sprout test; settings: 96 h, read-out: effect in at least one of the two categories (mortality or growth inhibition)
Summary of the method: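 Scoring covered both mortality and growth inhibition relative to untreated controls, 4 days post-infestation. Test solutions at 200 ppm, diluted in water from 10′000 ppm DMSO stocks, were sprayed onto agar-held maize sprouts, which after drying received 6 to 10 L2 larvae each well.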

Spodoptera littoralis = Spodoptera littoralis (Egyptian cotton leaf worm) cotton leaf disc test; settings: foliar, 72 h, read-out: control (at least one of mortality, anti-feedant effect, and growth inhibition)
Summary of the method: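 Five first-instar larvae per disc were placed on dried, sprayed cotton leaf discs held on agar. Test solutions were aqueous, made from 10′000 ppm DMSO stocks. At day 3, control was counted when mortality, feeding deterrence or growth inhibition exceeded the untreated discs.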

Myzus persicae = Myzus persicae (green peach aphid) sunflower leaf disc test; settings: foliar, 144 h
Description: Myzus persicae (Green Peach Aphid):
Sunflower leaf discs were placed on agar in a 24-well microtiter plate and sprayed with test solutions at an application rate of 200 ppm. After drying, the leaf discs were infested with an aphid population of mixed ages. After an incubation period of 6 days after treatment, samples were checked for mortality. The following compounds gave at least 80% mortality of Myzus persicae: […]

CCC1=NOC(N(C=O)C(=O)c2ccc(C3=NO[C@@](c4cc(Cl)c(F)c(Cl)c4)(C(F)(F)F)C3)cc2C)C1 (stereo partly drawn) [Compound A022, 4-[(5S)-5-(3,5-dichloro-4-fluoro-phenyl)-5-(trifluoromethyl)-4H-isoxazol-3-yl]-N-(3-ethyl-4,5-dihydroisoxazol-5-yl)-N-formyl-2-methyl-benzamide]
≥ 80%: mortality at 200 ppm (Tetranychus urticae) | mortality at 200 ppm (Thrips tabaci) | percent effect (mortality or growth inhibition) at 200 ppm (Plutella xylostella) | percent effect (mortality or growth inhibition) at 200 ppm (Diabrotica Balteata) | percent control (mortality, anti-feedant effect or growth inhibition) at 200 ppm (Spodoptera littoralis) | mortality at 200 ppm (Myzus persicae)

CCOC1=NOC(N(C=O)C(=O)c2ccc(C3=NO[C@@](c4cc(Cl)cc(Cl)c4)(C(F)(F)F)C3)cc2C)C1 (stereo partly drawn) [Compound A133, 4-[(5S)-5-(3,5-dichlorophenyl)-5-(trifluoromethyl)-4H-isoxazol-3-yl]-N-(3-ethoxy-4,5-dihydroisoxazol-5-yl)-N-formyl-2-methyl-benzamide]
≥ 80%: mortality at 200 ppm (Tetranychus urticae) | mortality at 200 ppm (Thrips tabaci) | percent effect (mortality or growth inhibition) at 200 ppm (Plutella xylostella) | percent effect (mortality or growth inhibition) at 200 ppm (Diabrotica Balteata) | percent control (mortality, anti-feedant effect or growth inhibition) at 200 ppm (Spodoptera littoralis) | mortality at 200 ppm (Myzus persicae)

Cc1cc(C2=NO[C@@](c3cc(Cl)c(F)c(Cl)c3)(C(F)(F)F)C2)ccc1C(=O)NC1CC(OC2COC2)=NO1 (stereo partly drawn) [Compound A082]
≥ 80%: mortality at 200 ppm (Tetranychus urticae) | mortality at 200 ppm (Thrips tabaci) | percent effect (mortality or growth inhibition) at 200 ppm (Plutella xylostella) | percent effect (mortality or growth inhibition) at 200 ppm (Diabrotica Balteata) | percent control (mortality, anti-feedant effect or growth inhibition) at 200 ppm (Spodoptera littoralis) | mortality at 200 ppm (Myzus persicae)

Cc1cc(C2=NO[C@@](c3cc(Cl)c(F)c(Cl)c3)(C(F)(F)F)C2)ccc1C(=O)N(C=O)C1CC(C(F)(F)F)=NO1 (stereo partly drawn) [Compound A004, 4-[(5S)-5-(3,5-dichloro-4-fluoro-phenyl)-5-(trifluoromethyl)-4H-isoxazol-3-yl]-N-formyl-2-methyl-N-[3-(trifluoromethyl)-4,5-dihydroisoxazol-5-yl]benzamide]
≥ 80%: mortality at 200 ppm (Tetranychus urticae) | mortality at 200 ppm (Thrips tabaci) | percent effect (mortality or growth inhibition) at 200 ppm (Plutella xylostella) | percent effect (mortality or growth inhibition) at 200 ppm (Diabrotica Balteata) | percent control (mortality, anti-feedant effect or growth inhibition) at 200 ppm (Spodoptera littoralis) | mortality at 200 ppm (Myzus persicae)

Cc1cc(C2=NO[C@@](c3cc(Cl)c(F)c(Cl)c3)(C(F)(F)F)C2)ccc1C(=O)NC1CC(OCC(F)(F)C(F)F)=NO1 (stereo partly drawn) [Compound A101]
≥ 80%: mortality at 200 ppm (Tetranychus urticae) | mortality at 200 ppm (Thrips tabaci) | percent effect (mortality or growth inhibition) at 200 ppm (Plutella xylostella) | percent effect (mortality or growth inhibition) at 200 ppm (Diabrotica Balteata) | percent control (mortality, anti-feedant effect or growth inhibition) at 200 ppm (Spodoptera littoralis) | mortality at 200 ppm (Myzus persicae)

CCOC1=NOC(NC(=O)c2ccc(C3=NO[C@@](c4cc(Cl)cc(Cl)c4)(C(F)(F)F)C3)cc2C)C1 (stereo partly drawn) [Compound A061, 4-[(5S)-5-(3,5-dichlorophenyl)-5-(trifluoromethyl)-4H-isoxazol-3-yl]-N-(3-ethoxy-4,5-dihydroisoxazol-5-yl)-2-methyl-benzamide]
≥ 80%: mortality at 200 ppm (Tetranychus urticae) | mortality at 200 ppm (Thrips tabaci) | percent effect (mortality or growth inhibition) at 200 ppm (Plutella xylostella) | percent effect (mortality or growth inhibition) at 200 ppm (Diabrotica Balteata) | percent control (mortality, anti-feedant effect or growth inhibition) at 200 ppm (Spodoptera littoralis) | mortality at 200 ppm (Myzus persicae)

COCC1=NOC(NC(=O)c2ccc(C3=NO[C@@](c4cc(Cl)c(F)c(Cl)c4)(C(F)(F)F)C3)cc2C)C1 (stereo partly drawn) [Compound A090]
≥ 80%: mortality at 200 ppm (Tetranychus urticae) | mortality at 200 ppm (Thrips tabaci) | percent effect (mortality or growth inhibition) at 200 ppm (Plutella xylostella) | percent effect (mortality or growth inhibition) at 200 ppm (Diabrotica Balteata) | percent control (mortality, anti-feedant effect or growth inhibition) at 200 ppm (Spodoptera littoralis) | mortality at 200 ppm (Myzus persicae)

CCOC1=NOC(NC(=O)c2ccc(C3=NO[C@@](c4cc(Cl)c(Cl)c(Cl)c4)(C(F)(F)F)C3)cc2Cl)C1 (stereo partly drawn) [Compound A060, 2-chloro-N-(3-ethoxy-4,5-dihydroisoxazol-5-yl)-4-[(5S)-5-(3,4,5-trichlorophenyl)-5-(trifluoromethyl)-4H-isoxazol-3-yl]benzamide]
≥ 80%: mortality at 200 ppm (Tetranychus urticae) | mortality at 200 ppm (Thrips tabaci) | percent effect (mortality or growth inhibition) at 200 ppm (Plutella xylostella) | percent effect (mortality or growth inhibition) at 200 ppm (Diabrotica Balteata) | percent control (mortality, anti-feedant effect or growth inhibition) at 200 ppm (Spodoptera littoralis) | mortality at 200 ppm (Myzus persicae)

Cc1cc(C2=NO[C@@](c3cc(Cl)c(Cl)c(Cl)c3)(C(F)(F)F)C2)ccc1C(=O)NC1CC(Br)=NO1 (stereo partly drawn) [Compound A125, N-(3-bromo-4,5-dihydroisoxazol-5-yl)-2-methyl-4-[(5S)-5-(3,4,5-trichlorophenyl)-5-(trifluoromethyl)-4H-isoxazol-3-yl]benzamide]
≥ 80%: mortality at 200 ppm (Tetranychus urticae) | mortality at 200 ppm (Thrips tabaci) | percent effect (mortality or growth inhibition) at 200 ppm (Plutella xylostella) | percent effect (mortality or growth inhibition) at 200 ppm (Diabrotica Balteata) | percent control (mortality, anti-feedant effect or growth inhibition) at 200 ppm (Spodoptera littoralis) | mortality at 200 ppm (Myzus persicae)

CC1=NOC(N(C=O)C(=O)c2ccc(C3=NO[C@@](c4cc(Cl)c(F)c(Cl)c4)(C(F)(F)F)C3)cc2C)C1 (stereo partly drawn) [Compound A008, 4-[(5S)-5-(3,5-dichloro-4-fluoro-phenyl)-5-(trifluoromethyl)-4H-isoxazol-3-yl]-N-formyl-2-methyl-N-(3-methyl-4,5-dihydroisoxazol-5-yl)benzamide]
≥ 80%: mortality at 200 ppm (Tetranychus urticae) | mortality at 200 ppm (Thrips tabaci) | percent effect (mortality or growth inhibition) at 200 ppm (Plutella xylostella) | percent effect (mortality or growth inhibition) at 200 ppm (Diabrotica Balteata) | percent control (mortality, anti-feedant effect or growth inhibition) at 200 ppm (Spodoptera littoralis) | mortality at 200 ppm (Myzus persicae)

CC1=NOC(N(C=O)C(=O)c2ccc(C3=NO[C@@](c4cc(Cl)cc(C(F)(F)F)c4)(C(F)(F)F)C3)cc2C)C1 (stereo partly drawn) [Compound A039, 4-[(5S)-5-[3-chloro-5-(trifluoromethyl)phenyl]-5-(trifluoromethyl)-4H-isoxazol-3-yl]-N-formyl-2-methyl-N-(3-methyl-4,5-dihydroisoxazol-5-yl)benzamide]
≥ 80%: mortality at 200 ppm (Tetranychus urticae) | mortality at 200 ppm (Thrips tabaci) | percent effect (mortality or growth inhibition) at 200 ppm (Plutella xylostella) | percent effect (mortality or growth inhibition) at 200 ppm (Diabrotica Balteata) | percent control (mortality, anti-feedant effect or growth inhibition) at 200 ppm (Spodoptera littoralis) | mortality at 200 ppm (Myzus persicae)

C#CCCCOC1=NOC(NC(=O)c2ccc(C3=NO[C@@](c4cc(Cl)c(Cl)c(Cl)c4)(C(F)(F)F)C3)cc2C)C1 (stereo partly drawn) [Compound A113, 2-methyl-N-(3-pent-4-ynoxy-4,5-dihydroisoxazol-5-yl)-4-[(5S)-5-(3,4,5-trichlorophenyl)-5-(trifluoromethyl)-4H-isoxazol-3-yl]benzamide]
≥ 80%: mortality at 200 ppm (Tetranychus urticae) | mortality at 200 ppm (Thrips tabaci) | percent effect (mortality or growth inhibition) at 200 ppm (Plutella xylostella) | percent effect (mortality or growth inhibition) at 200 ppm (Diabrotica Balteata) | percent control (mortality, anti-feedant effect or growth inhibition) at 200 ppm (Spodoptera littoralis) | mortality at 200 ppm (Myzus persicae)

CCOC1=NOC(NC(=O)c2ccc(C3=NO[C@@](c4cc(Cl)cc(C(F)(F)F)c4)(C(F)(F)F)C3)cc2C)C1 (stereo partly drawn) [Compound A047]
≥ 80%: mortality at 200 ppm (Tetranychus urticae) | mortality at 200 ppm (Thrips tabaci) | percent effect (mortality or growth inhibition) at 200 ppm (Plutella xylostella) | percent effect (mortality or growth inhibition) at 200 ppm (Diabrotica Balteata) | percent control (mortality, anti-feedant effect or growth inhibition) at 200 ppm (Spodoptera littoralis) | mortality at 200 ppm (Myzus persicae)

Cc1cc(C2=NO[C@@](c3cc(Cl)cc(C(F)(F)F)c3)(C(F)(F)F)C2)ccc1C(=O)NC1CC(Cl)=NO1 (stereo partly drawn) [Compound A016, N-(3-chloro-4,5-dihydroisoxazol-5-yl)-4-[(5S)-5-[3-chloro-5-(trifluoromethyl)phenyl]-5-(trifluoromethyl)-4H-isoxazol-3-yl]-2-methyl-benzamide]
≥ 80%: mortality at 200 ppm (Tetranychus urticae) | mortality at 200 ppm (Thrips tabaci) | percent effect (mortality or growth inhibition) at 200 ppm (Plutella xylostella) | percent effect (mortality or growth inhibition) at 200 ppm (Diabrotica Balteata) | percent control (mortality, anti-feedant effect or growth inhibition) at 200 ppm (Spodoptera littoralis) | mortality at 200 ppm (Myzus persicae)
